From ChEMBL document CHEMBL1156452, “Minocycline down-regulates MHC II expression in microglia and macrophages through inhibition of IRF-1 and protein kinase C (PKC)alpha/betaII” (J Biol Chem, 2007)
Active and inactive are the calls of the source. The calls are words filed in the database; no cut-off is given here.

Experiments:
[1] = Decrease in IFN-gamma-induced CIITA mRNA expression in Sprague-Dawley rat primary microglial cells at 100 uM after 24 hrs by RT-PCR; format: functional, cell-based; conditions: Microglia
[2] = target: T1, Interferon regulatory factor 1 (Rattus norvegicus) (UniProt P23570); experiment: Suppression of IFN-gamma-induced IFN-gamma regulatory factor 1 nuclear translocation in Sprague-Dawley rat primary microglial cells at 100 uM by Western blotting
T1 sequence (whole entry): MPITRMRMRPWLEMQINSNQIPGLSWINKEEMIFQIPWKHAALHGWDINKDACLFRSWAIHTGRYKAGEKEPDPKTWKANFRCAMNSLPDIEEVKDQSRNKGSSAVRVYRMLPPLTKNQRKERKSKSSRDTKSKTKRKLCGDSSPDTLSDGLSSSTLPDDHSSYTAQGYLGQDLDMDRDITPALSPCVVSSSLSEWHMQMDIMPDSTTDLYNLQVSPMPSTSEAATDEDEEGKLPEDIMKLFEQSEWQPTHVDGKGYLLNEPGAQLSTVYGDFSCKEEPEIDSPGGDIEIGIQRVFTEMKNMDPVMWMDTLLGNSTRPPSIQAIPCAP

[3] = target: Protein kinase C alpha type (Rattus norvegicus) (UniProt P05696); experiment: Decrease in PKCalpha phosphorylation in Sprague-Dawley rat peritoneal macrophages at 100 uM after 24 hrs
[4] = Decrease in IFN-gamma-induced MHC2 protein levels in Sprague-Dawley rat primary microglial cells at 100 uM by Western blotting; format: functional, Microglia; set-up: scale not given: the % may be the effect or the level left
[5] = Decrease in IFN-gamma-induced MHC2 expression in Sprague-Dawley rat primary microglial cells at 100 uM; format: functional, cell-based; set-up: scale not given: the % may be the effect or the level left; conditions: Microglia
[6] = species on record: Rattus norvegicus; experiment: Suppression of IFN-gamma-induced PKCalpha/beta2 nuclear translocation in Sprague-Dawley rat primary microglial cells at 100 uM by Western blotting
[7] = system: Rattus norvegicus; experiment: Decrease in accumulation of MHC 2+ cells in spinal cord of dark agouti rat experimental allergic encephalomyelitis model at 45 mg/kg, ip administered twice a day at the first day of clinical signs and once a day for 14 days by immunostaining; format: functional; set-up: scale not given: the % may be the effect or the level left; conditions: route intraperitoneal
[8] = system: Rattus norvegicus; experiment: Decrease in size of MOG-induced inflammatory lesions in spinal cord of dark agouti rat experimental allergic encephalomyelitis model at 45 mg/kg, ip administered twice a day at the first day of clinical signs and once a day for 14 days by hematoxylin and eosin staining; format: functional, organism-based; set-up: dose 45 mg/kg
[9] = system: Rattus norvegicus; experiment: Decrease in number of MOG-induced inflammatory lesions in spinal cord of dark agouti rat experimental allergic encephalomyelitis model at 45 mg/kg, ip administered twice a day at the first day of clinical signs and once a day for 14 days by hematoxylin and eosin staining; format: functional, organism-based; set-up: dose 45 mg/kg
[10] = species on record: Rattus norvegicus; experiment: Reduction in IFN-gamma-induced PKCalpha/beta2 phosphorylation in Sprague-Dawley rat primary microglial cells at 100 uM by Western blotting
[11] = system: Rattus norvegicus; experiment: Decrease in accumulation of CD11b+ cells in spinal cord of dark agouti rat experimental allergic encephalomyelitis model at 45 mg/kg, ip administered twice a day at the first day of clinical signs and once a day for 14 days by immunostaining; format: functional; set-up: scale not given: the % may be the effect or the level left; conditions: route intraperitoneal
[12] = Decrease in IFN-gamma-induced MHC2 mRNA levels in Sprague-Dawley rat primary microglial cells at 100 uM after 24 hrs by RT-PCR; format: functional, Microglia; set-up: scale not given: the % may be the effect or the level left
[13] = system: Macrophage; experiment: Inhibition of MHC2 expression in Sprague-Dawley rat peritoneal macrophages at 100 uM after 24 hrs by immunostaining; format: functional, cell-based
[14] = target: T1, Interferon regulatory factor 1 (Rattus norvegicus); experiment: Suppression of IFN-gamma-induced IFN-gamma regulatory factor 1 nuclear translocation in Sprague-Dawley rat primary microglial cells at 1.3 uM by Western blotting
[15] = target: Protein kinase C alpha type (Homo sapiens, UniProt P17252); experiment: Inhibition of PKCalpha
[16] = target: Protein kinase C beta type (Homo sapiens, UniProt P05771); experiment: Inhibition of PKCbeta1
[17] = system: Macrophage; experiment: Inhibition of MHC2 expression in Sprague-Dawley rat peritoneal macrophages at 1.3 uM after 24 hrs by immunostaining; format: functional, cell-based
[18] = system: Microglia; experiment: Inhibition of IFN-gamma-induced IFN-gamma regulatory factor levels in Sprague-Dawley rat primary microglial cells by Western blotting; format: functional, cell-based
[19] = species on record: Rattus norvegicus; experiment: Suppression of IFN-gamma-induced PKCalpha/beta2 nuclear translocation in Sprague-Dawley rat primary microglial cells at 1.3 uM by Western blotting
[20] = Decrease in IFN-gamma-induced MHC2 protein levels in Sprague-Dawley rat primary microglial cells at 1.3 uM by Western blotting; format: functional, Microglia; set-up: scale not given: the % may be the effect or the level left
[21] = Decrease in IFN-gamma-induced MHC2 expression in Sprague-Dawley rat primary microglial cells at 1.3 uM; format: cell-based; set-up: scale not given: the % may be the effect or the level left; conditions: Microglia

Chain of Protein kinase C beta type (P05771 whole entry): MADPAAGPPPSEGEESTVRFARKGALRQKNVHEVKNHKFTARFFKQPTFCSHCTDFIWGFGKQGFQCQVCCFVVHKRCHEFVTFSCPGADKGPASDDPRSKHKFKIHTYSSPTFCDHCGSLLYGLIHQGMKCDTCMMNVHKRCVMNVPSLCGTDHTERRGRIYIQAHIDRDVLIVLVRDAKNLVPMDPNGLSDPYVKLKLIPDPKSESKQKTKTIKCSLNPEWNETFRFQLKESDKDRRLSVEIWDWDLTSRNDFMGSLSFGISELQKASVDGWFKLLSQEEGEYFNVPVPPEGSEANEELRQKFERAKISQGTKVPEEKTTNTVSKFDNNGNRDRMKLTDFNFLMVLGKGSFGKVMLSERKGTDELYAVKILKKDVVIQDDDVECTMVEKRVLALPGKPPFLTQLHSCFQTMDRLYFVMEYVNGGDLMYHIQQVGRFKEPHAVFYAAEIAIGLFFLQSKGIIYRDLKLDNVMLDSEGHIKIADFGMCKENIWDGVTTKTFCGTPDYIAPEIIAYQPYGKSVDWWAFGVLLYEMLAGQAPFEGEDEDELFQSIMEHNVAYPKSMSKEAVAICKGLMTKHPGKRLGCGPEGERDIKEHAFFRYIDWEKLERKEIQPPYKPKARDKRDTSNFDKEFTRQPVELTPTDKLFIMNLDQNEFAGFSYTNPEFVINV

With `CN(C)c1ccc(O)c2c1C[C@H]1C[C@H]3[C@H](N(C)C)C(O)=C(C(N)=O)C(=O)[C@@]3(O)C(O)=C1C2=O` [MINOCYCLINE] the Activity [1] was “Active”, the Activity [2] was “Active” and the Activity [3] was “Active”. For the same compound, the Activity [4] was 47%, the Activity [5] was 55% and the Activity [6] was “Active”. For the same compound, the Activity [7] was 42%, the Activity [8] was “Active” and the Activity [9] was “Active”. For the same compound, the Activity [10] was “Active”, the Activity [11] was 24% and the Activity [12] was 45%. The Activity [13] was “Active”.

With `Cn1c2ccccc2c2c3c(c4c5ccccc5n(CCC#N)c4c21)CNC3=O` [GO-6976] the Activity [14] was “Active”, the IC50 [15] was 2.3 nM and the IC50 [16] was 6.2 nM. The Activity [17] was “Active”, the Activity [18] was “Active” and the Activity [19] was “Active”. The Activity [20] was 80% and the Activity [21] was 55%.
